Data as given in patent US20050176804A1, “Method and material for free radical scavenging in human tissue” (priority 2003, published 2005).

Legend:
[1] = test system: human skin fibroblast cultures; assay: Total ROS generation in skin fibroblasts, DCFDA fluorescent probe; assay type: cell-based
Experimental: (§1) The anti-oxidative action of indoleacetyl phenylalanine was tested against reactive oxygen species (ROS) using human skin fibroblast cultures. Total ROS generation in skin fibroblasts was measured using the fluorescent dye dichlorofluorescin diacetate (DCFDA) as a probe. DCFDA readily diffuses through cell membranes and is enzymatically hydrolyzed by intracellular esterase to become non-fluorescent dichlorofluorescin (DCFH), which is then oxidized by reactive species (oxidants) to highly fluorescent […] (DCF). Increased antioxidant activity within a cell is marked by a reduction in the fluorescent DCF.
(§2) Positive results were obtained with fibroblasts incubated in both serum-containing and serum-free media (serum proteins, e.g., albumin, can act as antioxidants and skew test results).

skin fibroblasts [2] = assay: t-butyl hydroperoxide (t-BHP) induced ROS activity; assay type: cell-based, human; conditions: serum-free media
Experimental: as §1

[3] = test system: cultured human skin fibroblasts; assay: RNS suppression, total nitrate plus nitrite (Nox) generation, Greiss assay; assay type: cell-based; conditions: 60 μg/ml
Experimental: In addition to ROS activity, indoleacetyl phenylalanine was also tested against radical nitrogen species (RNS) in cultured human skin fibroblasts. To estimate suppression of RNS, total nitrate plus nitrite (Nox) generation was measured using the Greiss assay method. At a concentration of 60 μg/ml, indoleacetyl phenylalanine decreased RNS generation by 33% as compared to an untreated control.

Cu/ZnSOD = Cu/ZnSOD gene expression by Western blotting; assay type: cell-based; conditions: 15 and 30 μM; human skin fibroblasts
Experimental: (§3) The antioxidant effects of indoleacetyl phenylalanine was also tested with respect to the production of antioxidant enzymes by means of differential gene expression in human skin fibroblasts. The experiment was conducted with respect to gene expression related to two major defense enzymes, Superoxide Dismutase (SOD) and catalase. […] Gene expression for both enzymes was stimulated at indoleacetyl phenylalanine concentrations of 15 and 30 μM.

catalase = assay: Catalase gene expression by Western blotting; assay type: cell-based; conditions: 15 and 30 μM, particularly increased at 30 μM; human skin fibroblasts
Experimental: as §3

[4] = test system: nitric oxide synthase (iNOS); assay: iNOS suppression, native and activated states; assay type: cell-based; conditions: 3-12 μM
Excerpt: Following previous leads on indoleacetyl phenylalanine's finding as a potent anti-free radical substance, additional experimental evidence was sought to strengthen the earlier findings. Focus at this time was placed on nitric oxide synthase (iNOS), which is the key enzyme for generating a destructive oxidant, nitric oxide. Since this enzyme existed in native and activated states, it was pertinent to check both the enzyme activities to ascertain the inhibitory action of indoleacetyl phenylalanine.

fibroblast COX-2 enzymes = biological target: T1, fibroblast COX-2 enzymes (Homo sapiens, UniProt P35354); assay: Inhibition of fibroblast COX-2 enzymes; assay type: cell-based
T1 construct: endogenous in cells
T1 sequence (P35354 18-604): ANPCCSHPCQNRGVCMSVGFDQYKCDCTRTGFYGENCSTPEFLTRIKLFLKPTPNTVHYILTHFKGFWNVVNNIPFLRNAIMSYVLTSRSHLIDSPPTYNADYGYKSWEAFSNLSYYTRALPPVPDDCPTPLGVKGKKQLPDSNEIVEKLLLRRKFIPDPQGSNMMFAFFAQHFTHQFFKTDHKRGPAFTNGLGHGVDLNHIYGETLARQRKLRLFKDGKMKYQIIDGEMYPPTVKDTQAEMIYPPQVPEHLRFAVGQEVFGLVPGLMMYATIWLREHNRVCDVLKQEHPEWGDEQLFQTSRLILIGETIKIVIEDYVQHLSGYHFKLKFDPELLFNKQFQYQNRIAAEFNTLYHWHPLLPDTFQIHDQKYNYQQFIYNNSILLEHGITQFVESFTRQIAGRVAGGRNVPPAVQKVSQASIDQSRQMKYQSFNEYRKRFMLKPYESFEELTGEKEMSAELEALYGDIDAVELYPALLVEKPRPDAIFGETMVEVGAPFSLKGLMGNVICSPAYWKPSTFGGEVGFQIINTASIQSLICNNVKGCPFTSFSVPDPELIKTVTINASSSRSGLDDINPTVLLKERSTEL

fibroblasts = assay: Cell proliferation / cell viability, MTT method; assay type: cell-based
Experimental: Furthermore, to investigate the effects of indole derivatives on cell proliferation as a biological marker, cell viability was assayed using the MTT method.

skin fibroblasts [5] = assay: Cell viability of skin fibroblasts during ROS test; assay type: cell-based, human
Experimental: as §2

`O=C(Cc1c[nH]c2ccccc12)N[C@@H](Cc1ccccc1)C(=O)O` [indoleacetyl phenylalanine] was tested, and the “antioxidant activity toward ROS generation” value ([1]; 10% serum media, 15, 30, and 60 μM) was “significant antioxidant activity”, the “antioxidant activity toward ROS generation” value ([1]; serum-free media, 7.5, 15, and 30 μM) was “exhibited antioxidant activity” and the “antioxidant activity against t-BHP induced ROS activity” value (skin fibroblasts [2]) was “showed antioxidant activity”. The “decrease of RNS generation compared to untreated control” value [3] was 33%, the “gene expression for production of Cu/ZnSOD (protein amount)” value (Cu/ZnSOD) was “increased gene expression” and the “gene expression for production of catalase (protein amount)” value (catalase) was “increased gene expression”. For the same compound, the “suppression of iNOS, native state” value [4] was “suppressed iNOS”, the “suppression of iNOS gene expression activity, activated state” value ([4]; activated by 5 μM t-BHP) was “able to suppress iNOS gene expression activity” and the “anti-inflammatory effect, COX-2 inhibition” value (fibroblast COX-2 enzymes) was “inhibition of fibroblast COX-2 enzymes”. For the same compound, the “stimulation of cell proliferation compared to untreated controls” value (fibroblasts; MTT method) was 30%, the “lowest concentration giving dose-dependent fibroblast proliferation” value (fibroblasts; four-day incubation period) was 2 µM and the “effect on cell viability” value (skin fibroblasts [5]) was “without affecting cell viability”.
